Where “and” joins values, the source holds several entries; their conditions need not be identical. Equal entries are not always repeated. Where two headings read alike, the source gives them in different places.
Columns and labels:
[1] = tested on: KU812 cells; experiment: MTT cell proliferation assay; format: cell-based; details: Homo sapiens, 48 h, mean ± SEM
Excerpt: (§1) Various types of hematological malignancies were selected for in vitro testing: the human acute myeloid leukemia (AML) cell line MV4-11, and the human chronic myeloid leukemia (CML) cell lines KU812 and K562. Indeed, Pim kinases are overexpressed in a wide range of hematopoietic malignancies. Solid tumors were also included in the panel of tested cell lines: MCF-7 (human breast adenocarcinoma), HT-29 (human colon adenocarcinoma), and HeLa (human cervical cancer) cells. Cytotoxic effects were evaluated using an MTT assay, and living cells were also counted with the trypan blue dye exclusion method for MV4-11, KU812, and K562 cells.
(§2) MV4-11, K562, and KU812 cell lines were obtained from the Deutshe Sammlung von Mikroorganismens und Zellkulturen (DSMZ) and maintained according to the supplier’s recommendations. All cell lines were cultured in RPMI, with 10% fetal bovine serum, 1% glutamine, and 1% penicillin/ streptomycin at 37 °C and 5% CO2.
(§3) MV4-11, K562, and KU812 cells’ viability was studied using a MTT cell proliferation assay.
(§4) MV4-11, K562, and KU812 cells were incubated with 10 μL of MTT working solution (5 g/L of methylthiazolyldiphenyl-tetrazolium bromide from Sigma Aldrich, Lyon, France) for 4 h. Cells were then lysed overnight at 37 °C with 100 μL of 10% SDS and 0.003% HCl. Optical density (OD) at 570 nm was measured using a spectrophotometer CLARIOstar® (BMG Labtech, Offenburg, Germany). Living cells were also counted with the trypan blue dye exclusion method. […] Data were collected from at least three independent experiments and the values reported are means ± standard errors of the mean (SEM).

[2] = tested on: K562 cells; experiment: MTT cell proliferation assay; format: cell-based; details: Homo sapiens, 48 h, mean ± SEM
Excerpt: as §1, §2, §3, §4

[3] = tested on: HT-29 cells; experiment: MTT cytotoxicity assay; format: cell-based; details: Homo sapiens, 72 h
Excerpt: as §1
(§5) The cancer cell lines MCF-7, HT-29, and HeLa were obtained from Cell Bank of Rio de Janeiro, Brazil, and were grown in RPMI-1640 medium and L929 cells were grown in Dulbecco’s Modified Eagle’s Medium (DMEM). Both media were supplemented with fetal bovine serum (FBS) (10% of the final concentration) followed by treatment with penicillin and streptomycin as antibiotics (1% of the final concentration). The crude was incubated in the presence of CO2 atmosphere (5%) for 24 h with the temperature monitored and maintained at 37 °C.
(§6) MCF-7, HT-29, HeLa, and L929 cells (3×10^5 cells/mL) were plated in 96-well plates and incubated in the presence of CO2 atmosphere (5%) for 24 h at 37 °C. […] Then, 25 μL of MTT (5 mg/mL in PBS) were added to each well and the plates were left for another 3 h in the incubator at 37 °C and at the end of this period, the supernatant was aspirated. To perform the reading, 100 μL of dimethylsulfoxide (DMSO) were added in each well for the dissolution of the formazan crystals. The amount of formazan was measured by reading the plate at 560 nm absorbance. […] Each sample was tested in triplicate in two independent experiments.

[4] = tested on: MCF-7 cells; experiment: MTT cytotoxicity assay; format: cell-based; details: Homo sapiens, MCF7, 72 h
Excerpt: as §1, §5, §6

[5] = tested on: HeLa cells; experiment: MTT cytotoxicity assay; format: cell-based; details: Homo sapiens, 72 h
Excerpt: as §1, §5, §6

[6] = biological target: T1, HsCDK5/p25 (Homo sapiens, UniProt Q00535); experiment: Kinase assay, luminescent ADP-Glo, 10 µM ATP; format: biochemical; details: duplicate, read-out: Kinase Enzymatic IC50 CDK5/p25
T1 construct: made in house; host or cells: Escherichia coli BL21 DE3 pLysS
Protocol: (§7) The synthesized compounds were tested using a luminescence-based assay against a panel of nine kinases: Pim-1, Pim-2, CDK5/p25, CDK9/CyclinT, Haspin, CK1ε, and GSK3β (from human); DYRK1A (from Rattus norvegicus); and CLK1 (from Mus musculus).
(§8) Kinase enzymatic activities were assayed with 10 µM ATP in 384-well plates using the luminescent ADP-Glo^TM assay (Promega, Madison, WI, USA) according to the recommendations of the manufacturer (see [56] for details on this method). The transmitted signal was measured using the Envision (PerkinElmer, Waltham, MA, USA) microplate luminometer and expressed in relative light unit (RLU). In order to determine the half maximal inhibitory concentration (IC50), the assays were performed in duplicate in the absence or presence of increasing doses of the tested compounds. GraphPad Prism6 software (GraphPad Software, San Diego, CA, USA) was used to fit dose–response curves and to determine the IC50 values. Kinase activities are expressed in % of maximal activity, i.e., measured in the absence of inhibitor. Peptide substrates were obtained from Proteogenix (Schiltigheim, France).
(§9) For kinases expressed in bacteria, the Escherichia coli BL21 DE3 pLysS strain (Invitrogen, ThermoFisher Scientific, Waltham, MA, USA) was transformed with pGEX-2T-1 (Sigma-Aldrich, St. Louis, MO, USA) containing the coding region of the corresponding kinase. For kinases expressed in Sf9 insect cells, the coding region of the corresponding kinase was cloned in pFastBac^TM vector. Purification of the recombinant kinases was performed following the protocol “Bac-to-Bac® Baculovirus Expression System” provided by the manufacturer (Invitrogen, ThermoFisher Scientific, Waltham, MA, USA).
(§10) To validate the kinase assay, model inhibitors were used for each tested enzyme: Staurosporine from Streptomyces sp. (#S5921, purity ≥ 95%, Sigma-Aldrich) for HsCK1ε; Indirubin-30-oxime (#I0404, purity ≥ 98%, Sigma-Aldrich) for HsGSK-3β, HsPim-1 and 2, human cyclin-dependent kinases, RnDYRK1A and MmCLK1; CHR-6494 (#SML0648, purity ≥ 98%, Sigma-Aldrich) for Haspin.

[7] = biological target: T2, HsCDK9/CyclinT (Homo sapiens, UniProt P50750); experiment: Kinase assay, luminescent ADP-Glo, 10 µM ATP; format: biochemical; details: duplicate, read-out: Kinase Enzymatic IC50 CDK9/CyclinT
T2 construct: made in house; host or cells: Sf9 insect cells (baculovirus, pFastBac)
Protocol: as §7, §8, §9, §10

[8] = biological target: T3, HsPim-1 (Homo sapiens, UniProt P11309); experiment: Kinase assay, luminescent ADP-Glo, 10 µM ATP; format: biochemical
T3 construct: made in house; host or cells: Escherichia coli BL21 DE3 pLysS
Protocol: as §7, §8, §9, §10

[9] = biological target: T4, MmCLK1 (Mus musculus, UniProt P22518); experiment: Kinase assay, luminescent ADP-Glo, 10 µM ATP; format: biochemical; details: ADP-Glo, 10 µM ATP, duplicate; read-out: Kinase Enzymatic IC50 CLK1
T4 construct: made in house; host or cells: Escherichia coli BL21 DE3 pLysS
Protocol: as §7, §8, §9, §10

[10] = biological target: T5, HsPim-2 (Homo sapiens, UniProt Q9P1W9); experiment: Kinase assay, luminescent ADP-Glo, 10 µM ATP; format: biochemical; details: mean of n ≥ 3, read-out: IC50 Pim-2
T5 construct: made in house; host or cells: Escherichia coli BL21 DE3 pLysS
Protocol: as §7, §8, §9, §10

[11] = tested on: CaPkc1; set-up: method as in PMID 20865172; details: ATP-competitive; cited from earlier work
[12] = tested on: MV4-11 cells; experiment: MTT cell proliferation assay; format: cell-based, human; details: Homo sapiens, MV4-11, 48 h, mean ± SEM
Excerpt: as §1, §2, §3, §4

[13] = biological target: RnDYRK1A-kd (Rattus norvegicus, UniProt Q63470); experiment: Kinase assay, luminescent ADP-Glo, 10 µM ATP; format: biochemical; details: read-out: IC50 DYRK1A
Protocol: as §7, §8, §9, §10

[14] = biological target: T6, HsCK1ε (Homo sapiens, UniProt P49674); experiment: Kinase assay, luminescent ADP-Glo, 10 µM ATP; format: biochemical; details: read-out: IC50 CK1
T6 construct: made in house; host or cells: Sf9 insect cells (baculovirus, pFastBac)
Protocol: as §7, §8, §9, §10

[15] = Table 1, ADP-Glo, 10 µM ATP, duplicate, read-out: Kinase Enzymatic IC50 Pim-1
[16] = Table 2, ADP-Glo, 10 µM ATP, mean of n ≥ 3, read-out: IC50 Pim-1

T3 sequence (P11309 whole entry): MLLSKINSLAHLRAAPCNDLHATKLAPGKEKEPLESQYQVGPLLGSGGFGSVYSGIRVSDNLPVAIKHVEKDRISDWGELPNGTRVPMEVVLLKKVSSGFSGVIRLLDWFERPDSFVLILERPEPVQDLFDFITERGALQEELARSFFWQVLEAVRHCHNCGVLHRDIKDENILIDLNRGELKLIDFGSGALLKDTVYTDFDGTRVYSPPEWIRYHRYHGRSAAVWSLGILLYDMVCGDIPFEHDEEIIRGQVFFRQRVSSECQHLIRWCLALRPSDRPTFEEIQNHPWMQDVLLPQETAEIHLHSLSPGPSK
T2 sequence (P50750 whole entry): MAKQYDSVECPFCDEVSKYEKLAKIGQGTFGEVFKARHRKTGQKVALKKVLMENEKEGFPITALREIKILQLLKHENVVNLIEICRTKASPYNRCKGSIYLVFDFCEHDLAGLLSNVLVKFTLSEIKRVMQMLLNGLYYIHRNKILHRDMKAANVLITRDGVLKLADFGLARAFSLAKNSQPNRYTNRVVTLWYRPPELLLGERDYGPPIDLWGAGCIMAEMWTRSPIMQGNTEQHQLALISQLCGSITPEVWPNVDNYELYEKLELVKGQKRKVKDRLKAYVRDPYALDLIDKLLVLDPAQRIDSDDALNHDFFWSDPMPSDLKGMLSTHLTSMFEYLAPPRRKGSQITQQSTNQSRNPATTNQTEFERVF
T2 sequence (O60563 whole entry partner): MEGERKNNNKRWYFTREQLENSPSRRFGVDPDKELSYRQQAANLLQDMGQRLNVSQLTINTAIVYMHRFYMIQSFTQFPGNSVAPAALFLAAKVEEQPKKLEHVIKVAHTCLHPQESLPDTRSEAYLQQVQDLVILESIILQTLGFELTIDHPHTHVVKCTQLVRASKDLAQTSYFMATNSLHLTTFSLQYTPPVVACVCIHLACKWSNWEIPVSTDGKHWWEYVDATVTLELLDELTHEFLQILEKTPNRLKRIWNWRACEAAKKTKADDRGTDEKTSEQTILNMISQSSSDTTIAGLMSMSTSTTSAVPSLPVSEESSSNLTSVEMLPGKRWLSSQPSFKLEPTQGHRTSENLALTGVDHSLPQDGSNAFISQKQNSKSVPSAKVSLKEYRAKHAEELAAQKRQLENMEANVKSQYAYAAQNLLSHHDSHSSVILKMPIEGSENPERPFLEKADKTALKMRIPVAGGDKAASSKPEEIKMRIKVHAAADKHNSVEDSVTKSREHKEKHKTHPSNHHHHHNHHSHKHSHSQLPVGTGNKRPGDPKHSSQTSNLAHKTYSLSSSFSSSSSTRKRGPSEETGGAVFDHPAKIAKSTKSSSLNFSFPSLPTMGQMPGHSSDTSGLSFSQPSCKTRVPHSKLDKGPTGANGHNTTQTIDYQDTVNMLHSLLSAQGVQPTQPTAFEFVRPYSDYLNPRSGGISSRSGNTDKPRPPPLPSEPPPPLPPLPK
T6 sequence (P49674 whole entry): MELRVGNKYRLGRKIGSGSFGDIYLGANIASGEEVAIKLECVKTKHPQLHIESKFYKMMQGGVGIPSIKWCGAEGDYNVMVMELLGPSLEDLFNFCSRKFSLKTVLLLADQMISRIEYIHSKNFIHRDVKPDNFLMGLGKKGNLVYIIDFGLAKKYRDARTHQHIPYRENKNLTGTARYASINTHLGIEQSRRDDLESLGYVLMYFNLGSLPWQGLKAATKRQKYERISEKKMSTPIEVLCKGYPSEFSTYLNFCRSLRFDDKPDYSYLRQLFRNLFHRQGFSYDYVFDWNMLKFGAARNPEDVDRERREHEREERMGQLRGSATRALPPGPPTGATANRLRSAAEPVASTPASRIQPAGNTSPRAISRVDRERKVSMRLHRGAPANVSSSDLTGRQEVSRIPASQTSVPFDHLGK
T5 sequence (Q9P1W9 whole entry): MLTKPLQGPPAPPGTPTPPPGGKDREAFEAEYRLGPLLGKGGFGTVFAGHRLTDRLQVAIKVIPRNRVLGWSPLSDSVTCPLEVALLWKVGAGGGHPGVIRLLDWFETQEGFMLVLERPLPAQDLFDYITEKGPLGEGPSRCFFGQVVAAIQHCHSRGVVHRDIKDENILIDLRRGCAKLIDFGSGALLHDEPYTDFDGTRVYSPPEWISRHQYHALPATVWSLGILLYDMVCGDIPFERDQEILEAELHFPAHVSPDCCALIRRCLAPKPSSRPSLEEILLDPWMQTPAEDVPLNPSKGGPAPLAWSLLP
T4 sequence (P22518 whole entry): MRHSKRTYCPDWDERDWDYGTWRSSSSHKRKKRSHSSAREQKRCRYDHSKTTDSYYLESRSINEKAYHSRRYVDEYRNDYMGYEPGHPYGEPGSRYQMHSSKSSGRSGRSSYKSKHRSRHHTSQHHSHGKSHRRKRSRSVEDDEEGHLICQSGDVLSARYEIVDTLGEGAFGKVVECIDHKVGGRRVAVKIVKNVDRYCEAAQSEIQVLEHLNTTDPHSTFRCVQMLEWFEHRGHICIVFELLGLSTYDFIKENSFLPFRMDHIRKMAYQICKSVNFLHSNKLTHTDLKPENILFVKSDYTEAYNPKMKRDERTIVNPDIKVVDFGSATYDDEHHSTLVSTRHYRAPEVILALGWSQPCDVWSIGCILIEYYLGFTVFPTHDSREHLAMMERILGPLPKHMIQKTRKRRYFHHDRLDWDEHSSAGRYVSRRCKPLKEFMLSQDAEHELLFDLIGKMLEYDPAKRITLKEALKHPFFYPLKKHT
T1 sequence (Q00535 whole entry): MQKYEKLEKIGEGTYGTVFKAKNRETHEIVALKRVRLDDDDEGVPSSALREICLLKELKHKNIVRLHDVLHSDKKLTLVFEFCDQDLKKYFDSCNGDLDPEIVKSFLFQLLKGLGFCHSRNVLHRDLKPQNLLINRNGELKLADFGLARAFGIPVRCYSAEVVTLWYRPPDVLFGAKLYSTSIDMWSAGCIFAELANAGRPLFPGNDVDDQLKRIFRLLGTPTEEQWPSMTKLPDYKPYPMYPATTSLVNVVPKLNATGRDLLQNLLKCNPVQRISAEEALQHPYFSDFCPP
T1 sequence (Q15078 99-307 partner limits assumed): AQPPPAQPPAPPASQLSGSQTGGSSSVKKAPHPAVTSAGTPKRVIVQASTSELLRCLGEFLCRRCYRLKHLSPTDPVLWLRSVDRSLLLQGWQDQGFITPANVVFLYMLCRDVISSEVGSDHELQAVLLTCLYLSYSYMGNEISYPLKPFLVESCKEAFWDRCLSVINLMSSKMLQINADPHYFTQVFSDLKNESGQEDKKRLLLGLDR

Q: With `CC(=O)C1=C(O)C=C2Oc3c(C(N)=O)c(O)cc(O)c3[C@]2(C)C1=O` [Cerco, Cercosporamide] as the compound, how does the IC50 [1] read?
A: > 100000 nM

Q: And the IC50 [2]?
A: > 100000 nM

Q: What about the IC50 [3] of the same compound?
A: 10400 nM

Q: And the IC50 [4]?
A: 44300 ± 2100 nM

Q: What about the IC50 [5] of the same compound?
A: 7500 ± 3100 nM

Q: And the IC50 [6]?
A: 5600 nM

Q: What about the IC50 [7] of the same compound?
A: 220 nM

Q: What about the IC50 [8, 15] of the same compound?
A: 730 nM

Q: What about the IC50 [8, 16] of the same compound?
A: 730 nM

Q: What about the IC50 ([8]; printed in Figure 1, no reference given, read-out: Pim-1 IC50 (Figure 1)) of the same compound?
A: 732 nM

Q: What about the IC50 [9] of the same compound?
A: > 10000 nM

Q: And the IC50 [10]?
A: 1430 nM

Q: And the IC50 [11]?
A: 44 nM

Q: What about the IC50 [12] of the same compound?
A: 31500 ± 4700 nM

Q: Which melting point does the source give for `NC(=O)c1c(O)cc(O)c2c1oc1ccc(F)cc12` [Compound 46, 8-Fluoro-1,3-dihydroxydibenzo[b,d]furan-4-carboxamide] here?
A: 342 to 343 °C

Q: And the IC50 [1]?
A: > 100000 nM

Q: What about the IC50 [2] of the same compound?
A: > 100000 nM

Q: What about the IC50 [7] of the same compound?
A: 920 nM

Q: And the IC50 [13]?
A: 690 nM

Q: What about the IC50 [8, 15] of the same compound?
A: > 1000 nM and 1200 nM

Q: What about the IC50 [8, 16] of the same compound?
A: 1200 nM

Q: And the IC50 [14]?
A: 680 nM

Q: And the IC50 [12]?
A: 16100 ± 1600 nM

Source: PMC8587151, “Dibenzofuran Derivatives Inspired from Cercosporamide as Dual Inhibitors of Pim and CLK1 Kinases” (Molecules, 2021)
